Laboratory results as given in patent US7176224B2, “Oxazolyl-aryloxyacetic acid derivatives and their use as PPAR agonists” (Eli Lilly and Company, priority 2000, dated 2007).

Assays:
[1] = target: T1, huPPARα (Homo sapiens, UniProt Q07869); assay: DNA-dependent binding (ABCD binding), SPA, radioligand displacement; conditions: tritium-labeled PPARα agonist radioligand
T1 sequence (Q07869 1-468): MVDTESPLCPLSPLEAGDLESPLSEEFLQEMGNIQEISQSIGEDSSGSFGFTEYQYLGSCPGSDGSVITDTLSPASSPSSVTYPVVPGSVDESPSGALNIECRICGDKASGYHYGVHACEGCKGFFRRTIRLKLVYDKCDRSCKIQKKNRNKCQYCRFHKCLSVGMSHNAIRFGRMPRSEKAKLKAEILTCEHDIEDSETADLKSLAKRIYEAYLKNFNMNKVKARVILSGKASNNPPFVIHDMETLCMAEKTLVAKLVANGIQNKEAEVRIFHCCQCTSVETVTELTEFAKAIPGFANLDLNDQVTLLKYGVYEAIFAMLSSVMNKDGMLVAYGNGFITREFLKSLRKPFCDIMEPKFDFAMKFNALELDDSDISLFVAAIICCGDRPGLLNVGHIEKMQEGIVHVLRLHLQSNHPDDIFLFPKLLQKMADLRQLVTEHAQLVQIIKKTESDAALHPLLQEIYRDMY
T1 sequence (P19793 1-462 partner): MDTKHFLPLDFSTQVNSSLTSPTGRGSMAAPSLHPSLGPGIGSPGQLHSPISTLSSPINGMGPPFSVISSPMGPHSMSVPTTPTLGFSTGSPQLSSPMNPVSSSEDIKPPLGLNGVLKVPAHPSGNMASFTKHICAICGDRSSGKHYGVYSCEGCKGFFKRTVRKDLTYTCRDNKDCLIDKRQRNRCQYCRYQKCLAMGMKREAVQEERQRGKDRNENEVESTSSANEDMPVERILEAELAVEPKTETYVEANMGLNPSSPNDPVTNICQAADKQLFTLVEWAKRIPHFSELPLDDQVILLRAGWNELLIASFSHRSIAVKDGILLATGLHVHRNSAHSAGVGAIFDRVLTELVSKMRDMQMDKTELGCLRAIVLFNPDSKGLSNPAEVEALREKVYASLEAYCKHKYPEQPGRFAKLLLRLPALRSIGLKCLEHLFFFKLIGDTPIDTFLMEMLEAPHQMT
Description: (§1) […] binding (ABCD binding) was carried out using SPA technology with PPAR receptors. Tritium-labeled PPARα and PPARγ agonists were used as radioligands for generating displacement curves and IC50 values with compounds of the invention. Cotransfection assays were carried out in CV-1 cells. The reporter plasmid contained an acylCoA oxidase (AOX) PPRE and TK promoter upstream of the luciferase reporter cDNA. Appropriate PPARs and RXRα were constitutively expressed using plasmids containing the CMV promoter. […] In order to eliminate such interference, a GAL4 chimeric system was used in which the DNA binding domain of the transfected PPAR was replaced by that of GAL4, and the GAL4 response element was utilized in place of the AOX PPRE. Cotransfection efficacy was determined relative to PPARα agonist and […] reference molecules. Efficacies were determined by computer fit to a concentration-response curve, or in some cases at a single high concentration of agonist (10 μM). For binding or cotransfection studies with receptors other than PPARs, similar assays were carried out using appropriate ligands, receptors, reporter constructs, etc., for that particular receptor.
(§2) These studies were carried out to evaluate the ability of compounds of the invention to bind to and/or activate various nuclear transcription factors, particularly huPPARα (“hu” indicates “human”) and huPPARγ. These studies provide in vitro data concerning efficacy and selectivity of compounds of the invention. Furthermore, binding and cotransfection data for compounds of the invention were compared with corresponding data for marketed compounds that act on either huPPARα or huPPARγ.

[2] = target: T2, huPPARγ (Homo sapiens, UniProt P37231); assay: as above; conditions: tritium-labeled PPARγ agonist radioligand
T2 sequence (P37231 1-505): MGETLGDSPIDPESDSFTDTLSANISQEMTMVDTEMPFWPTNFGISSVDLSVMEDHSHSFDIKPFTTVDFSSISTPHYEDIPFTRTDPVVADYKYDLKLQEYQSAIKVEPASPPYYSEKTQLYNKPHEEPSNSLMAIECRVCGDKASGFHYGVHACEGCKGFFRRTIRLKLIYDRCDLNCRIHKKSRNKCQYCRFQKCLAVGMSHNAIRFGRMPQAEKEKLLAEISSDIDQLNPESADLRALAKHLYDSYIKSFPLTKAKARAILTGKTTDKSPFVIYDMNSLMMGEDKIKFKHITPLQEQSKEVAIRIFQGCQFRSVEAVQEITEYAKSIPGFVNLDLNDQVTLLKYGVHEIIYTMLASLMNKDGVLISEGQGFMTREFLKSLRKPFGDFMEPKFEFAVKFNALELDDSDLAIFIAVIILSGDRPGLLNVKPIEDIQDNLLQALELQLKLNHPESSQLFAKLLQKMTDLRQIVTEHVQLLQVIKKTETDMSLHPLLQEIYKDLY
T2 sequence (P19793 1-462 partner): T1 sequence (P19793 1-462 partner)
Description: as §1, §2

## Cc1oc(-c2cccc(-c3ccc(F)cc3)c2)nc1CCOc1ccc(CC(C)(Oc2ccccc2)C(=O)O)cc1 (centres unmarked) [Example 4, 3-(4-{2-[2-(4′-Fluorobiphenyl-3-yl)-5-methyloxazol-4-yl]ethoxy}phenyl)-2-methyl-2-phenoxypropionic acid]
[1]
  IC50: 0.147 µM
[2]
  IC50: 0.041 µM
